Data reported in article PMC4546552 (ACS chemical biology, 2015).
Like-named read-outs stand apart in the source and are kept apart here.

Assays:
rat NAAA (r-NAAA) = biological target: T1, rat NAAA (r-NAAA) (Rattus norvegicus, UniProt Q5KTC7); details: cited from earlier work
T1 sequence (Q5KTC7 131-362 limits assumed): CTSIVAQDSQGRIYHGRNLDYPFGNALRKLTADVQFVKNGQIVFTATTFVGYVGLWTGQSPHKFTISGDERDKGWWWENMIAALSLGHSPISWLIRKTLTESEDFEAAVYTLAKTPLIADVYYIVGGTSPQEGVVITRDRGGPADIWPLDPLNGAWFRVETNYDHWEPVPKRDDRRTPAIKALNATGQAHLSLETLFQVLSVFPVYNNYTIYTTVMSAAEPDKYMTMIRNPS
T1 sequence (Q5KTC7 34-130 limits assumed): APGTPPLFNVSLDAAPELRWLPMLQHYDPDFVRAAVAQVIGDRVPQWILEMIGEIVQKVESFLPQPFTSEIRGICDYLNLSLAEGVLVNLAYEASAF

human NAAA (h-NAAA) = biological target: T2, human NAAA (h-NAAA) (Homo sapiens, UniProt Q02083); details: read-out: IC50 for human NAAA (h-NAAA); cited from earlier work
T2 sequence (Q02083 29-359): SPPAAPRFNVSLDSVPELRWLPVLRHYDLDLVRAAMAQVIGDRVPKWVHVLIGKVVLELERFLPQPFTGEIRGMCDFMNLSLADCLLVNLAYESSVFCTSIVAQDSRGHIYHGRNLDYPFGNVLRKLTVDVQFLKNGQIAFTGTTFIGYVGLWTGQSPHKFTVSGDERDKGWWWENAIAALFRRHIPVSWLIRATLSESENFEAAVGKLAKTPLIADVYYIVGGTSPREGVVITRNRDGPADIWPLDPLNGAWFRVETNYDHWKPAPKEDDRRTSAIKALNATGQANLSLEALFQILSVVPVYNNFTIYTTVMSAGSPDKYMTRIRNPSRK

[1] = cited from earlier work
rodent models = details: cited from earlier work
[2] = Stability in rat liver microsomes; assay type: in vitro ADME
[3] = Stability in mouse liver microsomes; assay type: in vitro ADME
rat FAAH = biological target: T3, rat FAAH (Rattus norvegicus, UniProt P97612); experiment: Rat FAAH inhibition; assay type: biochemical
T3 sequence (P97612 1-579): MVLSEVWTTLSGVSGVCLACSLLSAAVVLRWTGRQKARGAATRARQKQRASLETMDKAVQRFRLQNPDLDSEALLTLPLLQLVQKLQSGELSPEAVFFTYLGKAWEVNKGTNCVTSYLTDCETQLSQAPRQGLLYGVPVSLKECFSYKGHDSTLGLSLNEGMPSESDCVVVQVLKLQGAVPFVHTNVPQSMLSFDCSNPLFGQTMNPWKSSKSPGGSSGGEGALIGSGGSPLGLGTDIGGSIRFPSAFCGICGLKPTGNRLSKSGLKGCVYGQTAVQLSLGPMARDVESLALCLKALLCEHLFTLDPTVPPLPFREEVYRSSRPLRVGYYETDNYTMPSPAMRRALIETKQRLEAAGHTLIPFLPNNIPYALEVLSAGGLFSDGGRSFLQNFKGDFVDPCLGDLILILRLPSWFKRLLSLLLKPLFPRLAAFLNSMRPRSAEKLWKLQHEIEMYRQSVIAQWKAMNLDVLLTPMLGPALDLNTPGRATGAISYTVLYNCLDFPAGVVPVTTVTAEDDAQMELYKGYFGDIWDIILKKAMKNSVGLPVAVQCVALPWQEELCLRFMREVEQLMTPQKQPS

[4] = test system: panel of 28 biologically relevant targets comprising lipid-metabolizing and inflammation-related enzymes; experiment: CEREP selectivity panel, enzymes; assay type: biochemical; details: 10 μM
[5] = test system: 79 commonly targeted ion channels, membrane transporters and receptors; experiment: CEREP selectivity panel, channels, transporters, receptors; assay type: binding; details: 10 μM
[6] = Pharmacokinetic analyses in mice, intravenous; assay type: in vivo; details: mouse, plasma, 3 mg/kg
r-NAAA = biological target: T4, r-NAAA (Rattus norvegicus, UniProt Q5KTC7); experiment: NAAA acylation in r-NAAA-overexpressing HEK-293 cells; assay type: cell-based; details: HEK-293 cells overexpressing r-NAAA, 10 μM, 1 h
T4 sequence (Q5KTC7 131-362 limits assumed): T1 sequence (Q5KTC7 131-362 limits assumed)
T4 sequence (Q5KTC7 34-130 limits assumed): T1 sequence (Q5KTC7 34-130 limits assumed)

NAAA [7] = biological target: T5, NAAA (Rattus norvegicus, UniProt Q5KTC7); experiment: In vivo NAAA acylation in rat lungs; details: rats, intravenous, 10 mg kg^−1
T5 sequence (Q5KTC7 131-362 limits assumed): T1 sequence (Q5KTC7 131-362 limits assumed)
T5 sequence (Q5KTC7 34-130 limits assumed): T1 sequence (Q5KTC7 34-130 limits assumed)

NAAA [8] = biological target: T6, NAAA (Mus musculus, UniProt Q9D7V9); experiment: Ex vivo mouse NAAA activity after dosing; assay type: in vivo; details: mice
T6 sequence (Q9D7V9 34-362): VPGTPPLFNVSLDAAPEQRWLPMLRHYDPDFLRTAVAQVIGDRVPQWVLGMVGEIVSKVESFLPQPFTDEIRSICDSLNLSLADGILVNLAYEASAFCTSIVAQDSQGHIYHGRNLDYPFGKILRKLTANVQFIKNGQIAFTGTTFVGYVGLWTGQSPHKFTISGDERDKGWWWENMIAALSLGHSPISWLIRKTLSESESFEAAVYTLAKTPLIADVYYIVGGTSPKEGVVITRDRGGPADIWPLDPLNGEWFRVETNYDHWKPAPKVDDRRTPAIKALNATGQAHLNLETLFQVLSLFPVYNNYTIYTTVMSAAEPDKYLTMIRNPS

PEA and OEA levels = PEA and OEA levels in mouse lungs; assay type: in vivo; details: 30 mg kg^−1 oral
[9] = test system: carrageenan-induced inflammation; experiment: Carrageenan-induced inflammation in mice; assay type: in vivo, mouse
[10] = test system: LPS-activated human macrophages; experiment: LPS-activated human monocyte-derived macrophages; assay type: cell-based

For `O=C(CCc1ccccc1)N[C@H]1COC1=O` [Compound 3, N-[(3S)-2-oxo-3-oxetanyl]-3-phenylpropanamide], the IC50 (rat NAAA (r-NAAA); read-out: IC50 for rat NAAA (r-NAAA)) is listed as ~420 nM.

For `C[C@@H]1OC(=O)[C@@H]1NC(=O)OCCCCCc1ccccc1` [Compound 4], the IC50 (rat NAAA (r-NAAA); read-out: IC50 for r-NAAA) is listed as ~50 nM, the IC50 (human NAAA (h-NAAA)) is listed as ~7 nM and the t1/2 in plasma [1] is listed as < 1 min. The “analgesic properties in rodent models” value (rodent models) was “marked analgesic properties”.

With `O=C(N[C@H]1CNC1=O)OCCCCC1CCCCC1` [Compound 6, 4-Cyclohexylbutyl-N-[(S)-2-oxoazetidin-3-yl]carbamate] the half-life [2] was < 5 min, the half-life [3] was < 5 min and the IC50 (rat FAAH) was > 100000 nM. For the same compound, the “interaction with panel of 28 enzymes” value [4] was “did not interact”, the “effect on 79 ion channels, membrane transporters and receptors” value [5] was “no significant effect” and the Cmax [6] was 1610 ng/mL. For the same compound, the Vd [6] was 3.1 L/kg, the clearance [6] was 139 mL/min/kg and the half-life [6] was ~15 min. The “covalent adduct with N-terminal cysteine (Cys131) of NAAA” value (r-NAAA) was “covalent product”, the “formation of covalent NAAA adduct in lungs” value (NAAA [7]) was “rapid formation of covalent adduct” and the “inhibition of NAAA activity in various organs” value (NAAA [8]; intraperitoneal 3–30 mg kg^−1, 2 h) was “substantial inhibition of NAAA activity”. The “inhibition of NAAA activity ex vivo” value (NAAA [8]; oral 30 mg kg^−1, 2 h) was “substantial inhibition of NAAA activity”, the “OEA levels in lungs” value (PEA and OEA levels; carrageenan-challenged mice) was “markedly increased” and the “PEA levels in lungs” value (PEA and OEA levels; carrageenan-challenged mice) was “markedly increased”. For the same compound, the “OEA levels in lungs” value (PEA and OEA levels; naïve mice) was “no effect”, the “PEA levels in lungs” value (PEA and OEA levels; naïve mice) was “no effect” and the “anti-inflammatory effects under antagonism of CB1 or CB2 receptors” value ([9]; AM251 or AM630 1 mg kg^−1 i.p. 30 min before 6) was “did not prevent the anti-inflammatory effects”. For the same compound, the “carrageenan-induced TNF-α levels in pleural exudate” value ([9]; mice, 1–30 mg kg^−1, oral) was “prevented both responses in a dose-dependent manner”, the “carrageenan-induced lung tissue myeloperoxidase (MPO) activity” value ([9]; mice, 1–30 mg kg^−1, oral) was “prevented both responses in a dose-dependent manner” and the “LPS-induced expression of iNOS” value ([10]; CD68+ human macrophages, LPS 100 ng mL^−1, flow cytometry) was “significant concentration-dependent inhibition”. For the same compound, the “LPS-induced release of TNF-α” value ([10]; CD68+ human macrophages, LPS, enzyme-linked immunoassay) was “significant concentration-dependent inhibition” and the “LPS-induced TNF-α expression” value ([10]; human macrophages, LPS, flow cytometry) was “Concentration-dependent effects”.

With `O=C(N[C@@H]1CNC1=O)OCCCCC1CCCCC1` [Compound 7, 4-Cyclohexylbutyl-N-[(R)-2-oxoazetidin-3-yl]carbamate] the “covalent adduct with N-terminal cysteine (Cys131) of NAAA” value (r-NAAA) was “only negligible amounts of the adduct”, the “carrageenan-induced TNF-α levels in pleural exudate” value ([9]; mice, 30 mg kg^−1, oral) was “no such effect” and the “carrageenan-induced lung tissue myeloperoxidase (MPO) activity” value ([9]; mice, 30 mg kg^−1, oral) was “no such effect”.

For `C[C@@H]1C[C@H]2[C@@H]3CCC4=CC(=O)C=C[C@]4(C)[C@@]3(F)[C@@H](O)C[C@]2(C)[C@@]1(O)C(=O)CO` [dexamethasone, reference compound], the “carrageenan-induced lung MPO activity, effect relative to maximal effect of 6” value ([9]; mice, 0.5 mg kg^−1, intraperitoneal) was “comparable”.
